In one test the test system is ubiquitination of METTL3. Description: Ubiquitination of METTL3 in A375 cells transfected with HA-ubiquitin (IP anti-METTL3, immunoblot anti-HA). It is filed as cell-based, human. Particulars: 10 μM MG-132 and PD0325901 for 8 h. On the procedure:
(§1) FIGS. 11A-11G: USP5 is Required for ERK-Mediated METTL3 Stabilization. (A) A375 cells transfected with HA-ubiquitin (ub) were treated with 10 μM MG-132 and MEK inhibitor PD0325901 for 8 h. The ubiquitination of METTL3 was detected by IP with anti-METTL3 and immunoblot with anti-HA. (B) After 8 h treatment with 10 μM PD0325901 with or without 10 μM MG-132, cell lysates from A375 cells were analyzed by immunoblot. (C) A375 cells were treated with various concentrations of PD0325901 for 1 h. Cell lysates were subjected to IP with METTL3 antibody followed by immunoblot. (D) 293T cells transfected as indicated were subjected to IP/immunoblot analysis. (E) Immunofluorescence analysis of myc-METTL3 (green) in mESC stable transfectants. DAPI (blue) was used to mark the nucleus. (F) Lysates of 293T cells transfected as indicated were subjected to IP with anti-Flag antibody followed by immunoblot. (G) Immunofluorescence analysis of 293T cells co-transfected with myc-METTL3 (green), Flag-USP5 (red) with or without constitutively active B-RAF.
FIGS. 14A-14I: Phosphorylation of the m^6A Methyltransferase Complex May Affect Tumorigenesis. […] (B) LC-MS/MS quantification of the m^6A/A ratio in mRNA of melanoma cell lines. (C) After 8 h treatment with 10 μM PD0325901 or 0.1 μM tramentib, cell lysates from HCT-116 cells were analyzed by immunoblot. […] The ubiquitination of METTL3 was detected by IP with anti-METTL3 and immunoblot with anti-HA. (F) After 8 hr treatment with 10 μM EOAI3402143 (EOAI) or 30 μM vialinin A, cell lysates from HCT-116 cells were analyzed by immunoblot. […] (I) LC-MS/MS quantification of the m^6A/A ratio in mRNA of breast cancer cell lines.
Immunoprecipitation, immunoblotting, and in vitro kinase assay. […] Primary antibodies were detected by HRP-linked secondary antibodies (Cell Signaling) together with SuperSignal West Pico Plus chemiluminescent substrate (Thermo Scientific) and imaged in a FluorChem R system (ProteinSimple).
Background: A western blot detects proteins with antibodies after separation by electrophoresis.

The test system of test [1] is METTL3 / m^6A methyltransferase complex in A375 cells. Description: Immunoblot of METTL3 / m^6A methyltransferase complex protein in A375 cell lysates. Format: cell-based, human. On the procedure:
FIGS. 6A-6H: Phosphorylation of the m^6A Methyltransferase Complex May Affect Tumorigenesis. (A) Lysates of A375 stable transfectants harvested at different time points after treatment with cycloheximide (CHX) 10 μg/ml were analyzed by immunoblot. (B) LC-MS/MS quantification of the m^6A/A ratio in mRNA of A375 stable transfectants. (C) After 8 h treatment with 10 μM PD0325901 or 0.1 μM tramentib, cell lysates from A375 cells were analyzed by immunoblot. (D) LC-MS/MS quantification of the m^6A/A ratio in mRNA of A375 cells treated with 10 μM PD0325901 or 0.1 μM tramentib for 48 h. (E) After 8hr treatment with 10 μM EOAI3402143 (EOAI) or 30 μM vialinin A , cell lysates from A375 cells were analyzed by immunoblot. (F) A375 stable transfectants as indicated were treated with 3 μM EOAI3402143 (EOAI) or 10 μM vialinin A before measuring cell viability by SRB assay. Data are presented as relative to the R-WT cells without drug treatment (n=3 per group, data represent mean±SEM). (G) Immunofluorescence analysis of METTL3 (green) in SKBR3 cells treated with 1 μM tucatinib and 1 μM lapatinib for 8 hr. DAPI (blue) was used to mark the nucleus. (H) LC-MS/MS quantification of the m^6A/A ratio in mRNA of SKBR3 and BT474 cells treated with 1 μM tucatinib and 1 μM lapatinib for 48 h. (See also FIG. 14.)
as §1
Immunoprecipitation, immunoblotting, and in vitro kinase assay. Immunoprecipitation (IP) and immunoblotting (IB) were performed as previously described (Sun et al., 2016). In brief, protein samples were isolated from respective cells by lysis in RIPA buffer (1% Triton X-100, 150 mM NaCl, 20 mM Na2PO4, pH 7.4) containing Halt Protease and Phosphatase Inhibitor Cocktail (Thermo Scientific). Subsequently, a BCA assay (Thermo Scientific) was used to determine the protein concentrations. For IP, indicated antibody and protein A/G magnetic beads (Thermo Scientific) were incubated with lysate at 4° C. overnight followed by washing and elution with sample buffer. Equal amounts of protein were separated by SDS-PAGE followed by wet transfer to PVDF membranes. Blots were blocked with 5% non-fat milk or BSA and incubated with respective primary antibody at 4° C. overnight. Primary antibodies were detected by HRP-linked secondary antibodies (Cell Signaling) together with SuperSignal West Pico Plus chemiluminescent substrate (Thermo Scientific) and imaged in a FluorChem R system (ProteinSimple).

The values below come from patent US20230123585A1, “COMPOSITIONS AND METHODS FOR TREATING OR PREVENTING CANCER USING DEUBIQUITINASE INHIBITORS” (The University of Chicago, priority 2020, published 2023).

For `O=C(NOC[C@H](O)CO)c1ccc(F)c(F)c1Nc1ccc(I)cc1F` [PD0325901], the “ubiquitination of METTL3” value in the test on ubiquitination of METTL3 was “increased”. In addition, the “degradation of METTL3” value in test [1] (A375 cells, 10 μM PD0325901, 8 h) is “increased”. In test [1] (A375 melanoma cells, 8 h, 10 μM PD0325901 or 0.1 μM trametinib), the “protein levels of the m^6A methyltransferase complex” value is on record as “reduce”.
